From patent US20260027104A1, “NOVEL NAPHTHYL AND ISOQUINOLINE SULFONAMIDE DERIVATIVES” (Hoffmann-La Roche Inc., priority 2022, published 2026)

Target: human GPR17 short isoform (Homo sapiens, UniProt Q13304)
Test: hGPR17 cAMP assay (GPR17 cAMP Assay Protocol, antagonist mode)
Assay type: cell-based
Settings: CHO-K1 cells stably expressing untagged human GPR17 short isoform; EC80 of agonist MDL29,951; forskolin 15 μM; 30 min, room temperature; TR-FRET cAMP readout
Method: GPR17 cAMP Assay Protocol:
CHO-K1 cells stably expressing vector containing untagged human GPR17 short isoform (Roche) were cultured at 37° C./5% CO2 in DMEM (Dulbecco's Modified Eagle Medium):F-12 (1:1) supplemented with 10% foetal bovine serum and 400 μg/ml Geneticin.
Changes in intracellular cyclic adenosine monophosphate (cAMP) levels were quantified using the Nano-TRF Detection Assay kit (Roche Diagnostics, Cat. No. 05214386001). This assay allows for direct cAMP quantification in a homogeneous solution. cAMP is detected based on time-resolved fluorescence energy transfer (TR-FRET) and competitive binding of ruthenylated cAMP and endogenous cAMP to an anti-cAMP monoclonal antibody labeled with AlexaFluor-700. The Ruthenium complex serves as the FRET donor and transfers energy to AlexaFluor-700. The FRET signal is inversely proportional to the cAMP concentration.
CHO-GPR17S cells were detached with Accutase and resuspended in assay buffer consisting of Hank's Balanced Salt Solution (HBSS), 10 mM HEPES (4-(2-hydroxyethyl) piperazine-1-ethanesulfonic acid solution) and 0.1% bovine serum albumin (pH 7.4). The cells were seeded in black 384-well plates (Corning) at a density of 10′000 cells/20 μl assay buffer until the addition of compounds.
Test antagonist compounds were serially diluted in dimethyl sulfoxide (DMSO) and spotted in 384-well plates. The compounds were then diluted in BSS buffer supplemented with an EC80 concentration of MDL29,951 (3-(2-Carboxy-4,6-dichloroindol-3-yl)propionic acid) (GPR17 agonist) plus 3-Isobutyl-1-methylxanthine (IBMX) (0.5 mM final concentration) and added to the cells at room temperature. Forskolin (15 μM final concentration) was added 5 minutes after the test compounds and the cells were incubated at room temperature for 30 minutes. The assay was stopped by adding cAMP detection mix (containing detergents for cell lysis) for 90 minutes at room temperature.
Cellular cAMP was measured using a Paradigm reader (Molecular Devices). The raw data was used to calculate the FRET signal based on the assay's P-factor as per cAMP kit instructions. The data was normalized to the maximal activity of a reference antagonist and dose response curves were fitted to the percent activity of the test compounds using a sigmoidal dose response model (Genedata Screener).
Results in the hGPR17 cAMP assay are provided for compounds of formula I in Table 1

human GPR17 short isoform, sequence (Q13304 29-367): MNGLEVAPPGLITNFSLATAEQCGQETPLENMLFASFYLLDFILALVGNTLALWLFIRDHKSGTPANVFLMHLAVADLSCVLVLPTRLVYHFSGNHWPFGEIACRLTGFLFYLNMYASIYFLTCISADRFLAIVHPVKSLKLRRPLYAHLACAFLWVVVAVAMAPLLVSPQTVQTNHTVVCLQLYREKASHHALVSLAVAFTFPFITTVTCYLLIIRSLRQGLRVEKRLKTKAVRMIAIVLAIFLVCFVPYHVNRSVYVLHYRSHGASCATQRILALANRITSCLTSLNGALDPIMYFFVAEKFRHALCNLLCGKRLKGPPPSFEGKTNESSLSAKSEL

Row | SMILES | IC50 [nM]
1 | COc1nc(OCC(F)F)c(F)cc1NS(=O)(=O)c1cc(=O)[nH]c2cc(Cl)ccc12 [Example 30, 7-chloro-N-[6-(2,2-difluoroethoxy)-5-fluoro-2-methoxy-3-pyridyl]-2-keto-1H-quinoline-4-sulfonamide] | 35
2 | COc1nc(OCC(F)F)c(F)cc1NS(=O)(=O)c1cccc2nc(N(C)C)ccc12 [Example 31, N-[6-(2,2-difluoroethoxy)-5-fluoro-2-methoxy-3-pyridyl]-2-(dimethylamino)quinoline-5-sulfonamide] | 65
3 | CN(C)c1ccc2c(S(=O)(=O)Nc3cc(F)c(CC#N)cc3F)cccc2n1 [Example 32, N-[4-(cyanomethyl)-2,5-difluoro-phenyl]-2-(dimethylamino)quinoline-5-sulfonamide] | 238
4 | COc1nc(OCC(F)F)c(F)cc1NS(=O)(=O)c1cccc2nc(C)ccc12 [Example 33, N-[6-(2,2-difluoroethoxy)-5-fluoro-2-methoxy-3-pyridyl]-2-methyl-quinoline-5-sulfonamide] | 11
5 | COc1nc(OCC(F)F)c(F)cc1NS(=O)(=O)c1cccc2cc(Cl)ccc12 [Example 34, 6-chloro-N-[6-(2,2-difluoroethoxy)-5-fluoro-2-methoxy-3-pyridyl]naphthalene-1-sulfonamide] | 48
6 | COc1nc(OCC(F)F)c(F)cc1NS(=O)(=O)c1cccc2nc(C(F)F)ccc12 [Example 35, N-[6-(2,2-difluoroethoxy)-5-fluoro-2-methoxy-3-pyridyl]-2-(difluoromethyl)quinoline-5-sulfonamide] | 214
7 | COc1nc(OCC(F)F)c(F)cc1NS(=O)(=O)c1cn(C)c(=O)c2cc(Cl)ccc12 [Example 36, 7-chloro-N-[6-(2,2-difluoroethoxy)-5-fluoro-2-methoxy-3-pyridyl]-1-keto-2-methyl-isoquinoline-4-sulfonamide] | 371
8 | COc1nc(OCC(F)F)c(F)cc1NS(=O)(=O)c1cc(=O)n(C)c2cc(Cl)ccc12 [Example 37, 7-chloro-N-[6-(2,2-difluoroethoxy)-5-fluoro-2-methoxy-3-pyridyl]-2-keto-1-methyl-quinoline-4-sulfonamide] | 246
9 | N#CCc1cc(F)c(NS(=O)(=O)c2c[nH]c(=O)c3c(Cl)c(Cl)ccc23)cc1F [Example 38, 7,8-dichloro-N-[4-(cyanomethyl)-2,5-difluoro-phenyl]-1-keto-2H-isoquinoline-4-sulfonamide] | 182
10 | COc1nc(OCC(F)F)c(F)cc1NS(=O)(=O)c1c[nH]c(=O)c2c(Cl)c(Cl)ccc12 [Example 39, 7,8-dichloro-N-[6-(2,2-difluoroethoxy)-5-fluoro-2-methoxy-3-pyridyl]-1-keto-2H-isoquinoline-4-sulfonamide] | 7
11 | COc1nc(OCC(F)F)c(F)cc1NS(=O)(=O)c1cccc2c(N(C)C)cccc12 [Example 40, N-[6-(2,2-difluoroethoxy)-5-fluoro-2-methoxy-3-pyridyl]-5-(dimethylamino)naphthalene-1-sulfonamide] | 13
12 | COc1nc(OCC(F)F)c(F)cc1NS(=O)(=O)c1cnc(N(C)C)c2cc(Cl)ccc12 [Example 41, 7-chloro-N-[6-(2,2-difluoroethoxy)-5-fluoro-2-methoxy-3-pyridyl]-1-(dimethylamino)isoquinoline-4-sulfonamide] | 61
13 | CN(C)c1ncc(S(=O)(=O)Nc2cc(F)c(CC#N)cc2F)c2ccc(Cl)cc12 [Example 42, 7-chloro-N-[4-(cyanomethyl)-2,5-difluoro-phenyl]-1-(dimethylamino)isoquinoline-4-sulfonamide] | 423
14 | CNc1ncc(S(=O)(=O)Nc2cc(F)c(OCC(F)F)nc2OC)c2ccc(Cl)cc12 [Example 43, 7-chloro-N-[6-(2,2-difluoroethoxy)-5-fluoro-2-methoxy-3-pyridyl]-1-(methylamino)isoquinoline-4-sulfonamide] | 35
15 | CNc1ncc(S(=O)(=O)Nc2cc(F)c(CC#N)cc2F)c2ccc(Cl)cc12 [Example 44, 7-chloro-N-[4-(cyanomethyl)-2,5-difluoro-phenyl]-1-(methylamino)isoquinoline-4-sulfonamide] | 315
16 | CNc1cc(S(=O)(=O)Nc2cc(F)c(OCC(F)F)nc2OC)c2ccc(Cl)cc2n1 [Example 45, 7-chloro-N-[6-(2,2-difluoroethoxy)-5-fluoro-2-methoxy-3-pyridyl]-2-(methylamino)quinoline-4-sulfonamide] | 72
17 | COc1nc(OCC(F)F)c(F)cc1NS(=O)(=O)c1cncc2c(C#N)c(Cl)ccc12 [Example 46, 7-chloro-8-cyano-N-[6-(2,2-difluoroethoxy)-5-fluoro-2-methoxy-3-pyridyl]isoquinoline-4-sulfonamide] | 253
18 | Cc1ccc(S(=O)(=O)Nc2cc(F)c(CC#N)cc2F)c2cccnc12 [Example 47, N-[4-(cyanomethyl)-2,5-difluoro-phenyl]-8-methyl-quinoline-5-sulfonamide] | 933
19 | COc1nc(OC(F)F)c(F)cc1NS(=O)(=O)c1ccnc2cc(Cl)ccc12 [Example 48, 7-chloro-N-[6-(difluoromethoxy)-5-fluoro-2-methoxy-3-pyridyl]quinoline-4-sulfonamide] | 154
20 | COc1ncc(S(=O)(=O)Nc2cc(F)c(CC#N)cc2F)c2ccc(Cl)cc12 [Example 49, 7-chloro-N-[4-(cyanomethyl)-2,5-difluoro-phenyl]-1-methoxy-isoquinoline-4-sulfonamide] | 905
21 | COc1nc(OCC(F)F)c(F)cc1NS(=O)(=O)c1cncc2nc(Cl)ccc12 [Example 50, 2-chloro-N-[6-(2,2-difluoroethoxy)-5-fluoro-2-methoxy-3-pyridyl]-1,7-naphthyridine-5-sulfonamide] | 38
22 | COc1nc(NS(=O)(=O)c2cccc3nc(Cl)ccc23)nc(OC)c1OC(F)F [Example 51, 2-chloro-N-[5-(difluoromethoxy)-4,6-dimethoxy-pyrimidin-2-yl]quinoline-5-sulfonamide] | 448
23 | N#CCc1cc(F)c(NS(=O)(=O)c2c[nH]c(=O)c3ccccc23)cc1F [Example 52, N-(4-(cyanomethyl)-2,5-difluorophenyl)-1-oxo-1,2-dihydroisoquinoline-4-sulfonamide] | 594
24 | N#CCc1cc(F)c(NS(=O)(=O)c2ccnc3cc(Cl)ccc23)cc1F [Example 53, 7-chloro-N-[4-(cyanomethyl)-2,5-difluoro-phenyl]quinoline-4-sulfonamide] | 976
25 | COc1nc(OCC(F)F)c(F)cc1NS(=O)(=O)c1cccc2nc(Br)ccc12 [Example 54, 2-bromo-N-[6-(2,2-difluoroethoxy)-5-fluoro-2-methoxy-3-pyridyl]quinoline-5-sulfonamide] | 9
